Laboratory results as given in EP0170121A1, “2-Hydroxy-3-aryloxypropyl or 2-hydroxy-2-benzofuranyl ethyl tertiary amine having an anti-hyperglycaemic and/or anti-obesity activity” (BEECHAM GROUP PLC, priority 1984, dated 1986).
Where a name gives a salt, the structure may show the parent alone.

Tests used:
[1] = system: Male Sprague-Dawley rats; assay: Effect on energy expenditure of rats (oxygen consumption, oral dosing); assay type: in vivo; details: deprived of food, p.o. in water, percentage of the rate of energy expenditure of the rats dosed with water, dose differs per compound (Dose mg/kg p.o.); for Mean Energy Expenditure (0-3h): 0-3h after dosing; for Mean Energy Expenditure (0-21h): 0-21h after dosing
Procedure: Male Sprague-Dawley rats each weighing between 170-200 g were deprived of food for 16 hours before, and during the experiment. Water was provided ad lib at all times. The compounds were administered orally in water to 3 or 4 rats. A further 4 rats were dosed orally with water. The rats were placed in boxes through which air was drawn and the oxygen content of the air leaving the boxes was measured. The energy expenditure of the rats was calculated for 3 hours and for 21 hours after dosing from the volume of air leaving the boxes and its oxygen content, following the principles described by J.B. de V. Weir, J. Physiol. (London) 109, 1-9 (1949). The results are expressed as a percentage of the rate of energy expenditure of the rats dosed with water.

[2] = system: Female CFLP mice; assay: Hypoglycaemic activity: subcutaneous glucose load, area under blood glucose curve; assay type: in vivo; details: female CFLP mice fasted 24 hours; compound orally 30 minutes before glucose 1 g/kg s.c.; 2 hour period; versus control mice given water; dose differs per compound (Dose µmol/kg)
Procedure: Female CFLP mice, weighing approximately 25 g, were fasted for 24 hours prior to the study. The compounds under study were administered orally as an aqueous solution to each of 6 mice. 30 minutes later a blood sample (20 µl) was obtained from the tail for the analysis of blood glucose. Immediately after taking this blood sample, glucose (1 g/kg body weight) was administered subcutaneously to each mouse. 6 mice were given water as a control. Blood samples were then obtained from each mouse at 30 minute intervals for 120 minutes.
Compounds that produced a significant (p<0.05) reduction of blood glucose, compared with control mice given water, at any time interval, were considered active. The area under the blood glucose curve over the 2 hour period after the administration of the glucose was calculated for each compound and compared with the value for control animals.

[3] = system: Isolated Rat Atria; assay: Effect of compounds on isolated rat atria (rate of right atrium, tension of left atrium); assay type: cell-based, Sprague-Dawley male rats; details: Krebs solution 32°C, up to 3x10-^5M; for effect on tension (electrically paced left atrium): isolated rat left atrium; for effect on rate (spontaneously beating right atrium): isolated rat right atrium
Procedure: Sprague-Dawley male rats (300-400 g) are killed and the right and left atria dissected out independently and mounted on a combined tissue holder/electrode. The tissues are then immersed in a glass bath containing Krebs solution maintained at 32 °C. The rate of the spontaneously beating right atrium (via an isometric tranducer and a ratemeter) and the tension of the electrically paced left atrium (via an isometric transducer) are recorded on an M19 chart recorder.
After an initial stabilization period, the tissues are exposed to a maximal concentration of isoprenaline (10^-6M). The tissues are then washed several times until rate and tension return to baseline level. A dose-response curve to the test compound is then carried out.

[4] = system: Female CD1 mice; assay: Effect on energy expenditure of mice (oxygen consumption, oral dosing); assay type: in vivo; details: p.o. in water, percentage of the rate of energy expenditure of the mice dosed with water, dose differs per compound (Dose mg/kg p.o.); for Mean Energy Expenditure (0-3h): 0-3h after dosing; for Mean Energy Expenditure (0-21h): 0-21h after dosing
Procedure: Female CD1 mice each weighing approximately 24 g were given food and water ad lib before and during the experiment. The compounds were dissolved in water and these solutions were administered orally to each of 12 mice. A further 12 mice were dosed orally with water. The mice were placed in groups of threes in boxes through which air was drawn and the oxygen content of the air leaving the boxes was measured. The energy expenditure of the mice was calculated for 3 and 21 hours after dosing from the volume of air leaving the boxes and its oxygen content, following the principles described by J.B. de V. Weir, J. Physiol. (London) 109, 1-9 (1949). The results are expressed as a percentage of the rate of energy expenditure of the mice dosed with water.

[5] = system: Female BALB/c mice; assay: Anti-obesity activity: weight of parametrial fat pads after 3 days of compound in the diet; assay type: in vivo; details: compound in diet for 3 days, dose differs per compound (Dose mg/kg diet), mean of 9 values
Procedure: Female BALB/c mice were trained to feed on powdered oxoid for 1 week. They were then housed in threes and the compound under study was added to the diet for 3 days. Food was removed at 09.00h and the mice were killed at 11.00h. The parametrial fat pads were weighed as pairs. The result is a mean of 9 values.

| SMILES | Mean Energy Expenditure (0-3h) [1] [percentage] | Mean Energy Expenditure (0-21h) [1] [percentage] | % Reduction in Area under Blood Glucose Curve [2] [%] | effect on tension (electrically paced left atrium) [3] | effect on rate (spontaneously beating right atrium) [3] | Mean Energy Expenditure (0-3h) [4] [percentage] | Mean Energy Expenditure (0-21h) [4] [percentage] | Percentage reduction in weight of parametrial fat pads compared with controls [5] [Percentage] |
| --- | --- | --- | --- | --- | --- | --- | --- | --- |
| COC(=O)c1ccc(C[C@@H](C)N(C[C@H](O)COc2ccccc2)C[C@H](O)COc2ccccc2)cc1 [Example 1, Methyl 4-[(R)-2-[bis-[(S)-2-hydroxy-3-phenoxypropyl]amino]propyl]benzoate] | 115 | 114 | 28 | no effect | no effect | 132 | 107 |  |
| COC(=O)c1ccc(C[C@@H](C)N(C[C@H](O)COc2ccccc2)C[C@H](O)c2ccccc2)cc1 [Example 4, Methyl 4-[(R)-2-[N-[(R)-2-hydroxy-2-phenethyl]-N-[(S)-2-hydroxy-3-phenoxypropyl]amino]propyl]benzoate, hydrochloride, monohydrate] | 110 | 119 | 12 | no effect | no effect | 145 | 120 | 25 |
| CC(Cc1ccc(OCC(N)=O)cc1)N(CC(O)COc1ccccc1)CC(O)c1cccc(Cl)c1.Cl (stereo not shown) [Example 8, 4-[2-[N-[2-(3-Chlorophenyl)-2-hydroxyethyl]-N-[2-hydroxy-3-phenoxypropyl]amino]propyl]phenoxyacetamide, hydrochloride] |  |  | 50 | no effect | no effect | 158 | 122 | 39 |
| COC(=O)c1ccc(CC(C)N(CC(O)COc2ccccc2)CC(O)c2ccc(O)c(CO)c2)cc1 (stereo not shown) [Example 9, Methyl 4-[2-[N-[2-hydroxy-2-[4-hydroxy-3-hydroxymethylphenyl]ethyl]-N-[2-hydroxy-3-phenoxypropyl]amino]propyl] benzoate] |  |  | 34 |  |  | 111 | 106 | 13 |
| COC(=O)COc1ccc(CC(C)N(CC(O)COc2ccc(CC(N)=O)cc2)CC(O)c2cccc(Cl)c2)cc1 (stereo not shown) [Example 11, Methyl 4-[2-[N-[2-(3-chlorophenyl)-2-hydroxyethyl]-N-[2-hydroxy-3-(4-carboxamidomethyl)phenoxypropyl]amino]propyl] phenoxyacetate, hydrochloride] | 136 | 111 | 57 |  |  | 120 | 112 | 16 |
| C[C@H](Cc1ccc(OCC(N)=O)cc1)N(C[C@H](O)COc1ccccc1)C[C@H](O)COc1ccccc1 [Example 14, 4-[(R)-2-[Bis-[(S)-2-hydroxy-3-phenoxypropyl]amino]propyl] phenoxyacetamide, hydrochloride] | 127 | 117 | 20 | no effect | no effect | 140 | 112 |  |
| CCOC(=O)COc1ccc(C[C@@H](C)N(C[C@H](O)COc2ccccc2)C[C@H](O)c2ccccc2)cc1 [Example 15, Ethyl 4-[(R)-2-[N-[(R)-2-hydroxy-2-phenethyl]-N-[(S)-2-hydroxy-3-phenoxypropyl]amino]propyl]phenoxyacetate, hydrochloride] | 135 | 118 | 42 | no effect | no effect | 144 | 120 | 32 |
| C[C@H](Cc1ccc(OCC(N)=O)cc1)N(C[C@H](O)COc1ccccc1)C[C@H](O)c1ccccc1 [Example 16, 4-[(R)-2-[N-[(R)-2-Hydroxy-2-phenethyl]-N-[(S)-2-hydroxy-3-phenoxypropyl]amino]propyl]phenoxyacetamide, hydrochloride, hemihydrate] | 141 | 119 |  |  |  | 151 | 113 | 27 |
| CCOC(=O)COc1ccc(C[C@@H](C)N(C[C@H](O)COc2ccccc2)C[C@H](O)COc2ccccc2)cc1 [Example 17, Ethyl 4-[(R)-2-[bis-[(S)-2-hydroxy-3-phenoxypropyl]amino]propyl]phenoxyacetate, hydrochloride, hemihydrate] | 120 | 105 |  |  |  |  |  | 37 |
| CCOC(=O)COc1ccc(C[C@@H](C)N(C[C@H](O)COc2ccccc2)C[C@H](O)c2cccc(Cl)c2)cc1 [Example 18, Ethyl 4-[(R)-2-[N-[(R)-2-(3-chlorophenyl)-2-hydroxyethyl]-N-[(S)-2-hydroxy-3-phenoxypropyl]amino]propyl]phenoxyacetate, hemifumarate] | 126 | 109 | 45 |  |  |  |  | 21 |
| C[C@H](Cc1ccc(OCCN)cc1)N(C[C@H](O)COc1ccccc1)C[C@H](O)c1ccccc1 [Example 20, 4-[(R)-2-[N-[(R)-2-Hydroxy-2-phenethyl]-N-[(S)-2-hydrpxy-3-phenoxypropyl]amino]propyl]phenoxyethylamine, dihydrochloride, hydrate] | 112 | 110 | 40 |  |  | 146 | 120 | 15 |
| CCOC(=O)COc1ccc(C[C@@H](C)N(C[C@@H](O)COc2ccccc2)C[C@H](O)c2ccccc2)cc1 [Example 23, Ethyl 4-[(R)-2-[N-[(R-2-hydroxy-2-phenethyl]-N-[(R)-2-hydroxy-3-phenoxypropyl]amino]propyl]phenoxyacetate, hydrochloride] | 129 | 111 |  |  |  |  |  | 31 |
